From PubChem BioAssay (NCI)
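Cells were grown in 96-well plates and exposed to each compound for 48 hours at five concentrations; endpoints were interpolated linearly between bracketing concentrations, or set to the highest concentration if not reached. At the TGI there is no net growth.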

Key:
Assay in all cases: NCI-60 cell line screen, 48 h
TK-10 renal = system: TK-10 renal
RXF 393 renal = system: RXF 393 renal
HCC-2998 colon = system: HCC-2998 colon
A498 renal = system: A498 renal
M14 melanoma = system: M14 melanoma
SF-539 CNS = system: SF-539 CNS
NCI-H460 lung = system: NCI-H460 lung
SF-268 CNS = system: SF-268 CNS
IGROV1 ovarian = system: IGROV1 ovarian
SW-620 colon = system: SW-620 colon
CAKI-1 renal = system: CAKI-1 renal
UO-31 renal = system: UO-31 renal
SNB-19 CNS = system: SNB-19 CNS
SK-MEL-28 melanoma = system: SK-MEL-28 melanoma
U251 CNS = system: U251 CNS
CCRF-CEM leukemia = system: CCRF-CEM leukemia
HL-60(TB) leukemia = system: HL-60(TB) leukemia
KM12 colon = system: KM12 colon
MDA-MB-231 breast = system: MDA-MB-231 breast
NCI/ADR-RES ovarian = system: NCI/ADR-RES ovarian

| SMILES | TGI (TK-10 renal) [µM] | TGI (RXF 393 renal) [µM] | TGI (HCC-2998 colon) [µM] | TGI (A498 renal) [µM] | TGI (M14 melanoma) [µM] | TGI (SF-539 CNS) [µM] | TGI (NCI-H460 lung) [µM] | TGI (SF-268 CNS) [µM] | TGI (IGROV1 ovarian) [µM] | TGI (SW-620 colon) [µM] | TGI (CAKI-1 renal) [µM] | TGI (UO-31 renal) [µM] | TGI (SNB-19 CNS) [µM] | TGI (SK-MEL-28 melanoma) [µM] | TGI (U251 CNS) [µM] | TGI (CCRF-CEM leukemia) [µM] | TGI (HL-60(TB) leukemia) [µM] | TGI (KM12 colon) [µM] | TGI (MDA-MB-231 breast) [µM] | TGI (NCI/ADR-RES ovarian) [µM] |
| --- | --- | --- | --- | --- | --- | --- | --- | --- | --- | --- | --- | --- | --- | --- | --- | --- | --- | --- | --- | --- |
| CCOC(=O)C1SC(=Nc2ccc(OC)c(OC)c2)N=C1C (centres undefined) | > 100 | > 100 | > 100 | > 100 | > 100 | > 100 | > 100 | > 100 | > 100 | > 100 | > 100 | 86.7 | > 100 | > 100 | > 100 | 59 | 49.1 | > 100 | – | – |
| C=CCNC(=S)N1CC(C)C(=O)Nc2cc(Cl)ccc21 (centres undefined) | > 100 | > 100 | – | > 100 | > 100 | > 100 | > 100 | > 100 | > 100 | – | > 100 | > 100 | > 100 | > 100 | > 100 | – | > 100 | > 100 | – | – |
| Clc1cccc(-c2sc(-c3ccsc3)cc2Cc2ccsc2)c1 | > 10 | > 10 | > 10 | – | > 10 | – | – | > 10 | > 10 | > 10 | > 10 | – | – | > 10 | – | > 10 | > 10 | > 10 | > 10 | – |
| COc1cc(C2C3=C(COC3=O)Oc3cc4c(cc32)OCO4)ccc1O (centres undefined) | > 100 | > 100 | 6.34 | > 25.7 | > 100 | 1.03 | > 100 | > 66.4 | > 100 | > 100 | 0.438 | – | > 100 | > 100 | > 100 | > 100 | – | > 100 | – | > 100 |
| O=C(Nc1ccc(Cl)cc1C(F)(F)F)C(=O)C1CCCS1(=O)=O (centres undefined) | > 100 | > 100 | > 100 | > 100 | > 100 | > 100 | > 100 | > 100 | > 10 | > 10 | > 100 | – | > 100 | > 100 | > 100 | > 100 | > 100 | > 100 | – | – |
| C[C@]12CCC(=O)C(OC(=O)c3ccc([N+](=O)[O-])cc3)=C1CCC2=O | > 100 | > 100 | > 100 | > 100 | > 100 | > 100 | > 100 | > 100 | > 100 | > 100 | > 100 | – | > 100 | > 100 | > 100 | > 100 | > 100 | > 100 | – | – |
| O=C(O)/C(Cl)=C(\Cl)C(=O)c1ccccc1 | > 100 | > 100 | > 100 | > 100 | > 100 | > 100 | > 100 | > 100 | > 100 | > 100 | > 100 | > 100 | > 100 | > 100 | > 100 | > 100 | > 100 | > 100 | – | – |
| CC(C)C(=O)N1Cc2cc(Cl)cc(Cl)c2OC(=O)c2ccccc21 | > 100 | – | 60.3 | 97.9 | 61.7 | 35.4 | > 100 | 41.5 | 81 | 94.9 | 64 | > 100 | > 100 | > 100 | – | 94.7 | 57.6 | > 100 | – | – |
| N#CC(/C(CCC(=O)Nc1ccc(Cl)cc1)=N/NC(=O)c1cc2ccccc2cc1O)c1ccccc1 (centres undefined) | > 100 | > 100 | > 100 | – | > 100 | – | > 100 | > 100 | > 100 | > 100 | – | > 100 | > 100 | > 100 | > 100 | 49.4 | 33 | > 100 | – | – |
| COC(=O)C1CCC(=O)N1C(c1cc(OC)c(OC)c(OC)c1)c1cc(OC)c(OC)c(OC)c1 (centres undefined) | > 100 | – | – | > 100 | > 100 | > 100 | > 100 | > 100 | > 100 | > 100 | – | > 100 | > 100 | > 100 | > 100 | – | > 100 | > 100 | > 100 | – |
| O=P1(c2ccccc2)c2ccccc2-c2ccccc21 | > 100 | > 100 | > 100 | – | – | > 100 | – | > 100 | > 100 | > 100 | > 100 | > 100 | > 100 | > 100 | – | > 100 | > 100 | > 100 | > 100 | – |
| O=C(/C=C\c1cccc2ccccc12)c1ccc(F)cc1 | 37.4 | – | 35.8 | > 100 | 29.9 | 41.4 | 33.2 | 30.8 | 29.4 | 20.4 | 35.3 | 32.4 | 31 | 26.4 | 29.9 | 41.8 | 53 | 28.8 | – | – |
| COc1ccc(/C(=N\NC(=O)NN)C(c2ccc(OC)cc2)C2(O)C(=O)Nc3c(Cl)cc(Cl)cc32)cc1 (centres undefined) | > 100 | > 100 | > 100 | – | > 100 | – | > 100 | > 100 | > 100 | > 100 | – | > 100 | > 100 | > 100 | > 100 | > 100 | > 100 | > 100 | – | – |
| CC(CCC[C@H](C)CO)[C@H]1[C@@H](O)C(O)C2[C@@H]3C[C@@H](O)C4(O)C[C@@H](O)CC[C@]4(C)C3CC[C@@]21C (some centres undefined) | > 100 | > 100 | > 100 | – | > 100 | > 100 | > 100 | > 100 | > 100 | > 100 | > 100 | > 100 | > 100 | > 100 | > 100 | > 100 | > 100 | > 100 | – | – |
| NNC(=O)CC(=O)Nc1cccc(Cl)c1 | > 100 | > 100 | > 100 | > 100 | – | > 100 | > 100 | > 100 | > 100 | > 100 | > 100 | > 100 | > 100 | > 100 | > 100 | > 100 | > 100 | > 100 | > 100 | – |
| O=C(CN(C(=O)OC12CC3CC(CC(C3)C1)C2)C(=O)OC12CC3CC(CC(C3)C1)C2)Oc1ccc([N+](=O)[O-])cc1 | > 100 | > 100 | > 100 | – | > 100 | > 100 | > 100 | > 100 | > 100 | > 100 | > 100 | > 100 | > 100 | > 100 | > 100 | > 100 | – | > 100 | > 100 | > 100 |
| CCOC(=O)Cn1c2ccccc2c(=O)c2cc(C)c(C)c(C#N)c21 | > 100 | > 100 | > 100 | – | – | > 100 | > 100 | > 100 | > 100 | > 100 | – | > 100 | > 100 | > 100 | > 100 | > 100 | > 100 | – | – | – |
| COc1cc(OC)c(C(=O)c2cccs2)cc1N | > 100 | > 100 | > 100 | > 100 | > 100 | > 100 | > 100 | > 100 | > 100 | > 100 | > 100 | > 100 | > 100 | > 100 | > 100 | > 100 | – | > 100 | – | – |
| Cc1cc(Cl)nc2nc(Cl)c(N)cc12 | 13.6 | > 32 | 3.59 | – | 25.6 | 30.6 | 5.43 | 3.5 | 22.9 | 4.08 | 0.871 | 9.54 | 9.57 | 6.21 | 4.3 | > 19.7 | – | 17.8 | 11.5 | 58.2 |
| S=C(NCCc1ccccn1)N/N=C/c1ccccn1 | > 100 | 12.2 | > 100 | 0.571 | 3.39 | 3.59 | 4.66 | > 100 | 0.634 | > 100 | < 0.01 | > 49.1 | > 100 | > 100 | > 100 | < 0.01 | < 0.01 | > 100 | – | > 100 |
| CC(=O)OC(CC1(C)C(C)CCC23COC(=O)C2=CCCC31)c1ccoc1 (centres undefined) | – | 27.7 | 57.1 | > 100 | 33.9 | 62.5 | > 100 | 36.2 | – | 66.8 | – | 60 | 82.9 | 33 | 29.3 | 80.3 | – | 67.4 | – | – |
| CCOC(=O)CC1COc2ccc3c(c21)OCO3 (centres undefined) | > 100 | – | > 100 | > 100 | > 100 | > 100 | > 100 | – | > 100 | > 100 | – | > 100 | > 100 | > 100 | > 100 | > 100 | > 100 | > 100 | – | – |
| COC(=O)c1cc(C(=O)OC)c(CC(=O)C(=O)NC2C3CC4CC(C3)CC2C4)nc1CC(=O)C(=O)NC1C2CC3CC(C2)CC1C3 (centres undefined) | > 100 | > 100 | > 100 | > 100 | > 100 | > 100 | > 100 | > 100 | > 100 | > 100 | > 100 | > 100 | > 100 | > 100 | > 100 | > 100 | > 100 | > 100 | – | – |
| Clc1cc2nn(C3CCCCO3)nc2cc1Cl (centres undefined) | > 100 | > 100 | > 100 | – | > 100 | > 100 | > 100 | – | > 100 | – | > 100 | > 100 | > 100 | – | > 100 | > 100 | – | > 100 | > 100 | > 100 |
| N/N=C1\C(=O)N(Cc2ccccc2)C(=O)C1C(=O)NCc1ccccc1 (centres undefined) | > 100 | > 100 | > 100 | > 100 | > 100 | > 100 | > 100 | > 100 | > 100 | > 100 | – | > 100 | > 100 | > 100 | > 100 | > 100 | > 100 | > 100 | – | – |
| N#CCc1c(-c2ccccc2)n(S(=O)(=O)c2ccccc2)c2ccccc12 | > 100 | – | > 100 | – | > 100 | > 100 | > 100 | > 100 | > 100 | > 100 | > 100 | > 100 | > 100 | > 100 | > 100 | > 100 | > 100 | > 100 | – | – |
| Cc1ccc(-c2nc3ccccc3c(=O)n2NCC2(O)OCC(O)C(O)C2O)cc1 (centres undefined) | – | > 100 | – | > 100 | > 100 | > 100 | > 100 | > 100 | – | > 100 | > 100 | > 100 | > 100 | > 100 | > 100 | > 100 | > 100 | > 100 | – | – |
| N#Cc1ccc(Cc2ccccn2)cc1Cl | > 100 | > 100 | – | – | – | > 100 | > 100 | > 100 | > 100 | > 100 | > 100 | > 100 | > 100 | > 100 | > 100 | > 100 | > 100 | > 100 | – | – |
